Test results published in PMC7749613 (Journal of Cachexia, Sarcopenia and Muscle, 2020).
Bridge positions count the residues as written; N and C are the ends. Square brackets hold non-standard residues; d marks the D form. Peptide text beside a SMILES is read from it. d2Nal = N[C@H](Cc1ccc2ccccc2c1)C(=O)O; Nle = CCCC[C@H](N)C(=O)O

Assays:
Type in all cases: in vitro ADME
[1] = target: T1, OAT1 (Homo sapiens, UniProt Q4U2R8); assay: Inhibition of prototypical substrate (PAH) uptake by TCMCB07 in HEK293/OAT1 cells; conditions: substrate 1.0 μM [14C]PAH, 5.0 min, up to 1000 μM TCMCB07
T1 construct: host or cells: HEK293
T1 sequence (Q4U2R8 1-563): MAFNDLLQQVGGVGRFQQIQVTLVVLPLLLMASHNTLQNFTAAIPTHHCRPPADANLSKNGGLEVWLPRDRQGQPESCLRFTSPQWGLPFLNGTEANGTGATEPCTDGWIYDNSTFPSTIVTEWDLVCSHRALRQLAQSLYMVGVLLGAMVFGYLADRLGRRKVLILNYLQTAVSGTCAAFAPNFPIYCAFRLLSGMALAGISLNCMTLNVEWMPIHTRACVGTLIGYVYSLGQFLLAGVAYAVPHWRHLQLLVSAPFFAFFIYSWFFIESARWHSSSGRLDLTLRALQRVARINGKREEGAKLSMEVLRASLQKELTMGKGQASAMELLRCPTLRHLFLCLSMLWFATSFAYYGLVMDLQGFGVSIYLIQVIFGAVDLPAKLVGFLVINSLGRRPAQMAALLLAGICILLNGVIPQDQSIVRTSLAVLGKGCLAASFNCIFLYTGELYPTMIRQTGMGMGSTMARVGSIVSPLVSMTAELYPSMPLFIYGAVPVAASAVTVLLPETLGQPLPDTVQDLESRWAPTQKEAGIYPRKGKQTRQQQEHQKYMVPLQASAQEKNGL
Protocol: (§3) Cells were then washed three times × 1.0 mL each with pre‐warmed Hank's Balanced Salt Solution (HBSS) buffer. A 0.5 mL aliquot of uptake buffer [HBSS plus 10 mM 4‐(2‐hydroxyethyl)‐1‐piperazineethanesulfonic acid (HEPES), pH 7.4], containing the radiolabelled prototypical substrate and mannitol, was then incubated for various times up to 60 min to determine the optimal incubation time for subsequent experiments (i.e. time of sampling during linear uptake conditions). At the designated times, 1.0 mL of ice‐cold HBSS buffer was added to stop uptake after which the cells were rinsed three times with 1.0 mL with ice‐cold HBSS. Hyamine hydroxide (0.33 mL) was then added to each well to lyse the cells. The cells were transferred into a scintillation vial and mixed with 6.0 mL of cytosine scintillation cocktail. Radioactivity of the solubilized cells was determined with a dual‐channel liquid scintillation counter (Beckman LS 6000; Beckman Coulter Inc., Fullerton, CA) and the protein quantified by a bicinchoninic acid protein assay kit (Pierce Biotechnology; Rockford, IL).

[2] = target: T2, human P‐gp (ABCB1, MDR1) (Homo sapiens, UniProt P08183); assay: Transepithelial transport of digoxin (±TCMCB07) in MDCKII/MDR1 cells
T2 construct: host or cells: MDCKII
T2 sequence (P08183 whole entry): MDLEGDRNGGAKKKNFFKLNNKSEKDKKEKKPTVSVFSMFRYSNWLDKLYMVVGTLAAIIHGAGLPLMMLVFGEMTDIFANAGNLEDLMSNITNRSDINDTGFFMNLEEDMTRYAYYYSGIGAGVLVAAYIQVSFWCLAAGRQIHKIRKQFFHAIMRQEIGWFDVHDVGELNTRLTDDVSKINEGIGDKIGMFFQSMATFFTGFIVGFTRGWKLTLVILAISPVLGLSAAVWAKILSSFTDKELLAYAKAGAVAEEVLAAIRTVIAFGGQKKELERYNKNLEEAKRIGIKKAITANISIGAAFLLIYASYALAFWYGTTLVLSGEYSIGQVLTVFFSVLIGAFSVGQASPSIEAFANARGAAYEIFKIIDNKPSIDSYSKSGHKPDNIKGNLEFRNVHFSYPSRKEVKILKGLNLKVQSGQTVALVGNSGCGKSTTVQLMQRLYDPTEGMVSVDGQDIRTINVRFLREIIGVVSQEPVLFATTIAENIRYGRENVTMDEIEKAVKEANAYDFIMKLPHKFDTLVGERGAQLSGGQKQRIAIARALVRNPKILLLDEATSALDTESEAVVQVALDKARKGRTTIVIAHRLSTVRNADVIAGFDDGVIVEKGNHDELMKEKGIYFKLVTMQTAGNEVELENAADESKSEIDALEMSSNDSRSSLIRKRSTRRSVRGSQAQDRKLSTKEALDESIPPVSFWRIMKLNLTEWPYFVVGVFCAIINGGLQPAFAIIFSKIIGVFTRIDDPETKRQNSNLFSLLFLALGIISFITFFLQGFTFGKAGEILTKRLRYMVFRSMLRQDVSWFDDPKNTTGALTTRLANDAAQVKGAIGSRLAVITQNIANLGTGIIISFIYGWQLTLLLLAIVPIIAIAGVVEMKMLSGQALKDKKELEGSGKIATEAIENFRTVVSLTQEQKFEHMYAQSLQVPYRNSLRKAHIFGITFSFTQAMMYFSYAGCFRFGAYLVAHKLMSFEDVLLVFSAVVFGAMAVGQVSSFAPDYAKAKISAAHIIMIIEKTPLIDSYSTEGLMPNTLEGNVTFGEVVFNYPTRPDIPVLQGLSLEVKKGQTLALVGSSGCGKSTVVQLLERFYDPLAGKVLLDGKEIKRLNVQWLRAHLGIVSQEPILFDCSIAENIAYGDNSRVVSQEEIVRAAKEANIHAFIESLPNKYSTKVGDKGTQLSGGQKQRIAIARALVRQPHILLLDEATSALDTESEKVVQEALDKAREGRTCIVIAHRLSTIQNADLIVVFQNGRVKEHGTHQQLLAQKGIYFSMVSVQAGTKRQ
Protocol: (§1) Cells were then washed three times, each with 0.5 mL pre‐warmed HBSS buffer. […] The cells were then incubated for various times up to 60 min. […] At the designated times, 15 μL of apical buffer and 50 μL of basolateral buffer were sampled. Once all the samples were collected, 0.5 mL of ice‐cold HBSS buffer was added to the well to stop transport after which the cells were rinsed three times with 0.5 mL of ice‐cold HBSS. The filters with monolayers were then detached from the chamber and placed in a scintillation vial, and the cells were lysed with 0.33 mL hyamine hydroxide.
(§2) The permeability of digoxin and rosuvastatin (prototypical substrates for MDR1 and BCRP, respectively) was determined by the following ^18 : (4) Papp=CR·VR/CD^o·A·∆Δt, where Papp is the apparent permeability, CR is the concentration of substrate in the receiver chamber, CD^o is the concentration of substrate in the donor chamber at time zero, VR is the volume of buffer in the receiver chamber, A is the surface area of the insert filter membrane, and ∆t is the time over which permeability is measured.

[3] = target: T3, BCRP (ABCG2) (Homo sapiens, UniProt Q9UNQ0); assay: Transepithelial transport of rosuvastatin (±TCMCB07) in MDCKII/BCRP cells
T3 construct: host or cells: MDCKII
T3 sequence (Q9UNQ0 1-655): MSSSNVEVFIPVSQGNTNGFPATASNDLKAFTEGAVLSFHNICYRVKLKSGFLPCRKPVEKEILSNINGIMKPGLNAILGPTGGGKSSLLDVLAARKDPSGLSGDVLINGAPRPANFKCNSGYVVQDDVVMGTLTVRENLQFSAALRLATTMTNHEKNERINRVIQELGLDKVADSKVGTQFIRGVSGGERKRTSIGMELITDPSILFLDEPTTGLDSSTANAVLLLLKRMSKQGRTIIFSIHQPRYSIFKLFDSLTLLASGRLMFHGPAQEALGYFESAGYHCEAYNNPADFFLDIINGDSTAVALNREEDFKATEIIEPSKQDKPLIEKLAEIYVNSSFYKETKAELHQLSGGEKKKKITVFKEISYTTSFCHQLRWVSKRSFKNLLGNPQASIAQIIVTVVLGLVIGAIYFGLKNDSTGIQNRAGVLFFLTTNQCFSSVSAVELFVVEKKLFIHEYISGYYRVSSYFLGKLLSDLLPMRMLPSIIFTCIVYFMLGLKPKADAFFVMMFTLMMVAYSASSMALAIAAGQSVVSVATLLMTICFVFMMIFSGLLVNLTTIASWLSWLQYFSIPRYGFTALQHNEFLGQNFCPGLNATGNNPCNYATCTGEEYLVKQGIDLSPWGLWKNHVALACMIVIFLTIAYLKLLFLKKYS
Protocol: as §1, §2
A similar analysis can be performed for rosuvastatin by substituting ERRos for ERDig and ERRos+T for ERDig+T in Eqn 6.

[4] = target: T4, OATP1A2 (Homo sapiens, UniProt P46721); assay: Inhibition of prototypical substrate (E3S) uptake by TCMCB07 in HEK293/OATP1A2 cells; parameters: host or cells: HEK293
T4 sequence (P46721 1-670): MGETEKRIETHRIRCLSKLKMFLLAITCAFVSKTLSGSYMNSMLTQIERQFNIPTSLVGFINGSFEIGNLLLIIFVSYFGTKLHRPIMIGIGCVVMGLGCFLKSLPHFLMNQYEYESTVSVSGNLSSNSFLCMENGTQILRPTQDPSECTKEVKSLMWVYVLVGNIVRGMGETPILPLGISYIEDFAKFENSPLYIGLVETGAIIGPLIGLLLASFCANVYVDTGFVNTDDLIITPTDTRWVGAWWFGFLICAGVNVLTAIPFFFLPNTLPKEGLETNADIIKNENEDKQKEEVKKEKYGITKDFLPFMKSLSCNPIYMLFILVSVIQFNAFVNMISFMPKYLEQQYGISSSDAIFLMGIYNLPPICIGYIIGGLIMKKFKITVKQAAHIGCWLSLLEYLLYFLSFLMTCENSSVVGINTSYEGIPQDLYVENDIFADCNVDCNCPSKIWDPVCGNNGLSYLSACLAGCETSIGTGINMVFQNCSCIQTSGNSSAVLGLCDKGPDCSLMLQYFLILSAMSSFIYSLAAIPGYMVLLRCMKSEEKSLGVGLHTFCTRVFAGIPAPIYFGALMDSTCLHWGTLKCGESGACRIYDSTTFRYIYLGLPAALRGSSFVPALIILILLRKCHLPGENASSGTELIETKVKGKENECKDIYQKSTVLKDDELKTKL
Protocol: as §3
Mock and transfected cells (250 000 cells/well) were seeded onto BioCoat poly‐D‐lysine 24 well plates (Corning Inc.) and cultured for 2 days as described previously for the other OATPs. […] Radioactivity and protein measurements were then performed as described previously.

[5] = in the presence of 500 μM TCMCB07, increased by
[6] = transfected cells, 500 μM TCMCB07

Compound: CCCC[C@H](NC(C)=O)C(=O)N[C@H]1CC(=O)NCCCC[C@@H](C(=O)N[C@@H](C(=O)N2CCC[C@@H]2C(N)=O)C(C)C)NC(=O)[C@H](Cc2c[nH]c3ccccc23)NC(=O)[C@H](CCCN=C(N)N)NC(=O)[C@@H](Cc2ccc3ccccc3c2)NC(=O)[C@@H]2CCCN2C1=O [TCMCB07, Ac‐Nle‐c[Asp‐Pro‐dNal2′‐Arg‐Trp‐Lys]‐dVal‐dPro‐NH2] (Ac-[Nle]DP[d2Nal]RWK[dV][dP]-NH2; lactam 2-7)
- IC50 [1]: could not be determined
- decrease of MDR1‐mediated permeability of digoxin, A to B direction ([2]; in the presence of 500 μM TCMCB07, decreased by): 27%
- increase of MDR1‐mediated permeability of digoxin, B to A direction [2, 5]: 68%
- effect on P‐gp (MDR1)‐mediated permeability of prototypical substrate [2, 6]: did not affect
- % Change ER of rosuvastatin, 100·(1−ERRos+T/ERRos) ([3]; MDCKII/BCRP, 500 μM TCMCB07, negative = efflux ratio increased): −32%
- increase of BCRP‐mediated permeability of rosuvastatin, A to B direction [3, 5]: 5%
- increase of BCRP‐mediated permeability of rosuvastatin, B to A direction [3, 5]: 37%
- effect on BCRP‐mediated permeability of prototypical substrate [3, 6]: did not affect
- IC50 [4]: 24 ± 2.8 µM
